“And” between values parts separate entries of the source, which are not always exact repeats. Identical values can stand only once. Counter-ions that a name gives are not always drawn. Like-named read-outs stand apart in the source and are kept apart here.
Experiments:
[1] = system: IL-5 stimulated TF-1 cells; assay: TF-1 cell proliferation assay, IL-5 stimulated cultures; format: cell-based, human; conditions: for Di: Di=EPO IC-50/IL5 IC-50; for IL-5 IC-50 compared with lidocaine: in words
Procedure: (§1) Controls and test compounds were assayed in serial dilutions, ranging from 1 mM to 0.5 uM, against TF-1 cell proliferation. Compounds were solublized in DMSO in 0.2M solutions followed by serial dilutions with the culture media.
(§2) Each dilution of the compounds was tested in triplicate in a 96 well, flat bottom tissue culture plate with 10,000 TF-1 cells per well for their abilities to inhibit IL-5 and/or EPO stimulated cultures. Wells without cells were used for the background signals. Both IL-5 and EPO stimulated cell cultures were tested in assays performed on the same day. Cultures were incubated for 72 hours in a 37° C. humidified incubator. At the end of the incubation, CellTiter AQueous One Solution (Promega, Madison, Wis.) was added for 1 to 3 hours, depending on the rate of color change. Following sufficient color change, the plates were read on a spectrophotometer (SpectraMax 190, Molecular Devices) at 490 nm.
(§3) IC-50 and […] values were calculated using the software SOFTmax Pro (Molecular Devices, Sunnyvale, Calif.).
(§4) Compounds were screened by inspecting the IC-50 values of the drug candidate on the proliferation assay. […] Potencies of the investigated compounds in inhibiting TF-1 cell proliferation were evaluated by comparing their IC-50 values relative to lidocaine. Due to the ability of TF-1 cells to be stimulated by a variety of cytokines, specificity can be evaluated by comparing IL-5 and EPO stimulated cell cultures IC-50 values. Specificity or differential inhibition (Di) values can be calculated for the investigated compounds using equation 1. Di=EPO IC-50/IL5 IC-50 (equation 1)

[2] = system: EPO stimulated TF-1 cells; assay: TF-1 cell proliferation assay, EPO stimulated cultures; format: cell-based; conditions: Homo sapiens
Procedure: as §1, §2, §3, §4

[3] = nebulized, Hunt, cited from earlier work
IL-5 = molecular target: T1, IL-5 (Homo sapiens, UniProt P05113); conditions: patients with mild asthma; Leckie, 2000; cited from earlier work
T1 construct: Administration of the anti-IL-5 drug, mepolizumab, to patients with mild asthma reduced blood and sputum eosinophils; host or cells: endogenous IL-5 in human patients with mild asthma (in vivo)
T1 sequence (P05113 20-134): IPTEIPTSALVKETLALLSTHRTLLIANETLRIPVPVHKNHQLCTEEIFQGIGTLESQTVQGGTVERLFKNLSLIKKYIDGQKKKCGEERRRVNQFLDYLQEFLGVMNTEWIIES

[4] = Homo sapiens, TF-1, 72 h, Table 6, TF-1 cells with IL-5 (5 ng/mL), 72 hours, read-out: IL-5 IC-50
[5] = Table 7, TF-1 cells with EPO (2 units/mL), 72 hours, read-out: EPO IC-50
[6] = Homo sapiens, TF-1, 72 h, Table 7, TF-1 cells with IL-5, 72 hours, read-out: IL-5 IC-50
[7] = Homo sapiens, TF-1, text, IL-5 stimulated TF-1 cells, read-out: IL-5 IC-50

Work on `CC[N+](CC)(CC(=O)Nc1c(C)cccc1C)Cc1ccccc1` [Compound 28, Denatonium Saccharide] yielded an IC50 [1, 4] of 136 µM.

For `Cc1ccccc1C(=O)NCc1cccnc1` [Compound 20, 2-methyl-N-(3-pyridinylmethyl)benzamide], the IC50 [2, 5] was 153 µM, the IC50 [1, 4] was 90 µM and the IC50 [1, 6] was 90 µM. For the same molecule, the Di ([1]; Table 7) was 1.700.

With `Cc1cccc(C)c1NC(=O)C(C)(C)C` [Compound 18, N-(2,6-dimethylphenyl)pivalamide] the IC50 [1, 4] was 79 µM and the “IL-5 IC-50 compared with lidocaine” value [1] was “lower than lidocaine's”.

In the case of `CCN(CC)CC(=O)Nc1c(C)cccc1C` [Compound 1, Lidocaine, reference compound], the “prednisolone-dependent patients able to eliminate or significantly reduce steroid usage” value [3]; 1996 is listed as 17 out of 20, the blood eosinophil levels ([3]; placebo controlled study, mild to moderate asthma, 2004) is listed as “decreased” and the IC50 [2, 5] is listed as 200 µM. The IC50 [1, 4] was 147 µM, the IC50 [1, 6] was 147 µM and the IC50 ([1]; Homo sapiens, TF-1, text b313, TF-1 cell proliferation, read-out: IC-50 (fifty percent growth inhibition)) was 147 µM. For the same molecule, the IC50 [1, 7] was 140 µM and the Di ([1]; Table 7) was 1.361.

`CCN(CC)CC(=O)Nc1c(C)cccc1C.Cl` [Compound 19, Lidocaine HCL, reference compound] showed an IC50 ([2]; TF-1, 72 h, read-out: EPO IC-50, Table 7, TF-1 cells with EPO (2 units/mL)) of 276 µM, an IC50 ([1]; Homo sapiens, TF-1, 72 h, read-out: IL-5 IC-50) of 84 µM and a Di ([1]; Table 7) of 3.286.

With `CN1CCC(=C2c3ccccc3CC(=O)c3sccc32)CC1` [Compound 3, Ketotifen fumarate, reference compound] the IC50 [2, 5] was 9 µM, the IC50 [1, 4] was 9 µM and the IC50 [1, 6] was 9 µM. It also gave an IC50 [1, 7] of 9 µM and a Di ([1]; Table 7) of 1.000.

`CN1CCOc2cc(Br)ccc21` [Compound 8, 7-Bromo-4-methyl-3,4-dihydro-2H-1,4-benzoxazine] gave an IC50 [1, 4] of 24 µM.

With `CCCCOc1cc(C(=O)NCCN(CC)CC)c2ccccc2n1` [Compound 13, Dibucaine Hydrochloride, reference compound] the IC50 [1, 4] was 48 µM.

Work on `CC(C)(C)OC(=O)Nc1ccc(C(=O)NCC(=O)O)cc1` [Compound 6, Boc-4-aminohippuric Acid] yielded an IC50 [1, 4] of 19 µM.

`CCCCN1CCCCC1C(=O)Nc1c(C)cccc1C` (stereo not drawn) [Compound 25, Bupivicaine Hydrochloride, reference compound] gave an IC50 [1, 4] of 107 µM.

`O=C(CN1CCN(c2ncccn2)CC1)Nc1ccc(F)cc1F` [Compound 5, N-(2,4-difluorophenyl)-2-(4-pyrimidin-2-ylpiperazinyl)ethanamide] gave an IC50 [1, 4] of 5 µM and an IC50 [1, 7] of 5 µM.

Work on `O=C(O)COC1Cc2ccccc2CN1` (stereo not drawn) [Compound 10, 3-Carboxymethoxy-1,2,3,4-Tetrahydroisoquinol] yielded an IC50 [1, 4] of 26 µM.

With `CCN(CC)CCOC(=O)c1ccc(N)cc1` [Compound 17, Procaine, reference compound] the IC50 [2, 5] was 109 µM, the IC50 [1, 4] was 71 µM and the IC50 [1, 6] was 71 µM. It also gave a Di ([1]; Table 7) of 1.535.

`Nc1ccc(C(=O)NCc2cccnc2)cc1` [Compound 4, 4-Amino-N-pyridin-3-yl-methyl-benzamide] gave an IC50 [2, 5] of 1.9 µM, an IC50 [1, 4] of 1.3 µM and an IC50 [1, 6] of 1.3 µM. It also gave an IC50 [1, 7] of 1.3 µM and a Di ([1]; Table 7) of 1.471.

Work on `C[C@@H](O)[C@H](NC(=O)c1ccccc1)C(=O)O` [Compound 11, N-Benzoyl-L-Threonine] yielded an IC50 [1, 4] of 30 µM.

For `Cc1cccc(C)c1NC(=O)CCC(C)C` [Compound 26, 4-methyl-N-(2,6-dimethylphenyl)-pentanamide], the IC50 [1, 4] was 119 µM and the “IL-5 IC-50 compared with lidocaine” value [1] was “lower than lidocaine's”.

With `Cc1cccc(C)c1NC(=O)c1ccnc2ccccc12` [Compound 9, N-(2,6-dimethylphenyl)quinoline-4-carboxamide] the IC50 [1, 4] was 24 µM and the “IL-5 IC-50 compared with lidocaine” value [1] was “lower than lidocaine's”.

Work on `CN1CCOc2cc(C(=O)O)ccc21` [Compound 21, 4-methyl-3,4-dihydro 2H-1,4-benoxazine 7 carboxylic acid] yielded an IC50 [2, 5] of 130 µM, an IC50 [1, 4] of 92 µM and an IC50 [1, 6] of 91.8 µM. The Di ([1]; Table 7) was 1.412.

With `c1ccc2c(c1)OCC(C1=NCCN1)O2` (stereo not drawn) [Compound 23, Idazoxan Hydrochloride, reference compound] the IC50 [1, 4] was 97 µM.

Work on `CCCCOc1cc(C(=O)OCCN(CC)CC)ccc1N` [Compound 24, Benoxinate, reference compound] yielded an IC50 [1, 4] of 98 µM.

`CC1COc2c(F)c(F)cc3c(=O)c(C(=O)O)cn1c23` (stereo not drawn) [Compound 7, 9,10-Difluoro-2,3-dihydro-3-methyl-7-oxo-7H-pyrido[1,2,3-DE]-1,4-benzoxazine-6-carboxylic acid] gave an IC50 [1, 4] of 20 µM.

For `C[C@@H]1C[C@H]2[C@@H]3CCC4=CC(=O)C=C[C@]4(C)[C@@]3(F)[C@@H](O)C[C@]2(C)[C@@]1(O)C(=O)CO` [Compound 2, Dexamethasone, reference compound], the IC50 [2, 5] was 38 µM, the Di value ([1]; EPO IC-50/IL5 IC-50) was 5.136 and 5.14 and the IC50 [1, 4] was 9 µM. For the same molecule, the IC50 [1, 6] was 7 µM, the IC50 [1, 7] was 4 µM and the Di ([1]; Table 7) was 5.136.

`CCCCCC(=O)Nc1c(C)cccc1C` [Compound 15, N-(2,6-dimethylphenyl)hexanamide] showed an IC50 [2, 5] of 137 µM, an IC50 [1, 4] of 62 µM and an IC50 [1, 6] of 62 µM. The Di ([1]; Table 7) was 2.210 and the “IL-5 IC-50 compared with lidocaine” value [1] was “lower than lidocaine's”.

`O=C(O)C1CNc2ccccc2O1` (stereo not drawn) [Compound 12, 3,4-Dihydro-2H-1,4-Benzoxazine-2-Carboxylic Acid] gave an IC50 [1, 4] of 38 µM.

With `Cc1cccc(C)c1NC(=O)Cc1ccccc1` [Compound 22, N-(2,6-dimethylphenyl)-2-phenylacetamide] the IC50 [2, 5] was 129 µM, the IC50 [1, 4] was 96 µM and the IC50 [1, 6] was 95.5 µM. For the same molecule, the Di ([1]; Table 7) was 1.351 and the “IL-5 IC-50 compared with lidocaine” value [1] was “lower than lidocaine's”.

In the case of `Cc1cccc(C)c1NC(=O)C(C)N` (stereo not drawn) [Compound 14, Tocainide HCL, reference compound], the IC50 [1, 4] is reported as 49 µM.

Molecule “Disopyramide [Compound 27, reference compound]” has an IC50 ([1]; Table 6, TF-1 cells with IL-5 (5 ng/mL), 72 hours, read-out: IL-5 IC-50) of 129 µM.

`Nc1ccc2c(c1)OCCO2` [Compound 16, 3,4-Ethylenedioxyaniline] showed an IC50 [2, 5] of 136 µM, an IC50 [1, 4] of 69 µM and an IC50 [1, 6] of 69 µM. It also gave a Di ([1]; Table 7) of 1.971.

B1: mepolizumab: anti-IL-5 drug (antibody, chains of the INN, looked up, V domains shown)
VH: QVTLRESGPALVKPTQTLTLTCTVSGFSLTSYSVHWVRQPPGKGLEWLGVIWASGGTDYNSALMSRLSISKDTSRNQVVLTMTNMDPVDTATYYCARDPPSSLLRLDYWGRGTPVTVSS
VL: DIVMTQSPDSLAVSLGERATINCKSSQSLLNSGNQKNYLAWYQQKPGQPPKLLIYGASTRESGVPDRFSGSGSGTDFTLTISSLQAEDVAVYYCQNVHSFPFTFGGGTKLEIK
For B1, the “blood and sputum eosinophils” value (IL-5) is given as “reduced”.

Reference: patent publication US9012419B2, “Methods and compositions related to eosinophil regulation” (University of Utah Research Foundation, priority 2006, dated 2015)
